Measurements: the RepoRT retention time repository (doi:10.1016/j.chroma.2012.12.030)

Assay: RP, Waters ACQUITY UPLC BEH C18, 100 × 2.1 mm, 1.7 µm, 60 °C, 0.3 mL/min, estimated dead time 0.73 min; A: water + 0.01% formic acid; B: methanol + 0.01% formic acid; gradient (min/%B) 0/10 14/90 16/90
Conditions: stereoisomer not certain

SMILES	LC retention time [min]
CCC1OC(=O)C(C)C(OC2CC(C)(OC)C(O)C(C)O2)C(C)C(OC2OC(C)CC(N(C)C)C2O)C(C)(OC)CC(C)C(=O)C(C)C(O)C1(C)O (stereo unspecified)	9.78
CNC(C)Cc1ccccc1 (stereo unspecified)	3.05
CC(COc1ccc(Oc2ccccc2)cc1)Oc1ccccn1 (stereo unspecified)	13.4
CC(C)c1ccc(NC(=O)N(C)C)cc1	8.83
CCOP(=S)(OCC)Oc1ccc(=O)n(-c2ccccc2)n1	10.7
CCC1OC(=O)C(C)C(OC2CC(C)(OC)C(O)C(C)O2)C(C)C(OC2OC(C)CC(N(C)C)C2O)C(C)(O)CC(C)C(=NOCOCCOC)C(C)C(O)C1(C)O (stereo unspecified)	9.99
CCN(CC)c1nc(C)cc(OP(=S)(OC)OC)n1	12
O=C1OC(CN2CCOCC2)CN1N=Cc1ccc([N+](=O)[O-])o1 (stereo unspecified)	2.64
COc1cc2c(c3oc(=O)c4c(c13)CCC4=O)C1CCOC1O2 (stereo unspecified)	6.76
CNC(C)Cc1ccc2c(c1)OCO2 (stereo unspecified)	3.02
CC(C)N1C(=O)c2ccccc2NS1(=O)=O	6.66
COC(=O)C1C2CCC(CC1OC(=O)c1ccccc1)N2 (stereo unspecified)	5.14
C=C1CC2C3C=C(C)C4=CC(=O)CCC4(C)C3CCC2(C)C1(OC(C)=O)C(C)=O (stereo unspecified)	11.8
CCCCCc1cc(O)c2c(c1)OC(C)(C)C1CCC(C(=O)O)=CC21 (stereo unspecified)	13.9
COC(=O)Nc1nc2ccccc2[nH]1	3.89
CC(N)Cc1ccc2c(c1)OCO2 (stereo unspecified)	2.97
COc1nc(N)nc(NC(C)(C)C)n1	6.25
O=C(OC1CC2CCC([NH2+]2)C1C(=O)[O-])c1ccccc1 (stereo unspecified)	4.3
COCC(=O)N(c1c(C)cccc1C)C(C)C(=O)OC (stereo unspecified)	9.09
CC12CCC3c4ccc(O)cc4CCC3C1CC(O)C2O (stereo unspecified)	6.96
CC(=O)OCC12CC(OC(=O)CC(C)C)C(C)=CC1OC1C(O)C(OC(C)=O)C2(C)C12CO2 (stereo unspecified)	10
CCOC(=O)CC(SP(=S)(OC)OC)C(=O)OCC (stereo unspecified)	11
COc1nn(CSP(=S)(OC)OC)c(=O)s1	9.06

SMILES	LC retention time [min]
CNC(=O)ON=C(C)SC	3.09
CCOC(=O)C1C(OC(=O)c2ccccc2)CC2CCC1N2C (stereo unspecified)	5.78
CCNc1nc(NC(C)(C)C)nc(OC)n1	9.07
CC(C)N1C(=O)N(c2ccccc2)CSC1=NC(C)(C)C	13.1
Cc1cc(C2CC2)nc(Nc2ccccc2)n1	11.4
CCCCC(C)C(OC(=O)CC(CC(=O)O)C(=O)O)C(CC(C)CC(O)CCCCC(O)CC(O)C(C)N)OC(=O)CC(CC(=O)O)C(=O)O (stereo unspecified)	9.48
CC12CCC3c4ccc(OS(=O)(=O)O)cc4CCC3C1CCC2O (stereo unspecified)	10.4
COc1cc2c(c3oc(=O)c4c(c13)CCC4=O)C1(O)C=COC1O2 (stereo unspecified)	6.04
CCSC(=O)N1CCCCCC1	10.4
CC(=O)OCC12CC(OC(=O)CC(C)C)C(C)=CC1OC1C(O)C(O)C2(C)C12CO2 (stereo unspecified)	9.07
COP(=S)(OC)SCn1nnc2ccccc2c1=O	11.5
CCOP(=S)(OCC)Oc1cc(C)nc(C(C)C)n1	11.9
CCC(C)C(=O)OC1CC(O)C=C2C=CC(C)C(CCC(O)CC(O)CC(=O)O)C21 (stereo unspecified)	9.27
CC1CCCC(=O)CCCC=Cc2cc(O)cc(O)c2C(=O)O1 (stereo unspecified)	10.3
CCNc1nc(NC(C)(C)C)nc(SC)n1	10.6
CCC(C)(C)C(=O)OC1CC(C)C=C2C=CC(C)C(CCC3CC(O)CC(=O)O3)C21 (stereo unspecified)	14.2
CC(=O)OC1(C(C)=O)CCC2C3C=C(C)C4=CC(=O)CCC4(C)C3CCC21C (stereo unspecified)	11.5
C#CC1(O)CCC2C3CCc4cc(O)ccc4C3CCC21C (stereo unspecified)	10.1
CCC1OC(=O)C(C)C(OC2CC(C)(OC)C(O)C(C)O2)C(C)C(OC2OC(C)CC(N(C)C)C2O)C(C)(O)CC(C)CN(C)C(C)C(O)C1(C)O (stereo unspecified)	6.2
CC(=O)OC1(C(C)=O)CCC2C3CC(C)C4=CC(=O)CCC4(C)C3CCC21C (stereo unspecified)	11.7
CCC1OC(=O)C(C)C(OC2CC(C)(OC)C(O)C(C)O2)C(C)C(OC2OC(C)CC(N(C)C)C2O)C(C)(O)CC(C)C(=O)C(C)C(O)C1(C)O (stereo unspecified)	8.5
CCNc1nc(NCC)[nH]c(=O)n1	2.83
COc1ccc(C(CN(C)C)C2(O)CCCCC2)cc1 (stereo unspecified)	6.34

SMILES	LC retention time [min]
COC=C(C(=O)OC)c1ccccc1Oc1cc(Oc2ccccc2C#N)ncn1	10
CCn1cc(C(=O)O)c(=O)c2cc3c(cc21)OCO3	5.67
CCCCC(C)C(OC(=O)CC(CC(=O)O)C(=O)O)C(CC(C)CCCCCCC(O)CC(O)C(C)N)OC(=O)CC(CC(=O)O)C(=O)O (stereo unspecified)	11
CCNC(C)Cc1ccc2c(c1)OCO2 (stereo unspecified)	3.48
CC(N)Cc1ccccc1 (stereo unspecified)	2.8
COC(=O)C1C(OC(=O)c2ccccc2)CC2CCC1N2C (stereo unspecified)	4.66
CNC(=O)Oc1cccc2ccccc12	7.81
COc1cc2c(c3oc(=O)c4c(c13)CCOC4=O)C1CCOC1O2 (stereo unspecified)	5.93
COc1cc2c(c3oc(=O)c4c(c13)CCOC4=O)C1C=COC1O2 (stereo unspecified)	6.35
CCNc1nc(NC(C)C)[nH]c(=O)n1	3.93
CCCC1CC(C(=O)NC(C(C)O)C2OC(SC)C(O)C(O)C2O)N(C)C1 (stereo unspecified)	3.13
CCC1OC(=O)CC(O)C(C)C(OC2OC(C)C(OC3CC(C)(O)C(O)C(C)O3)C(N(C)C)C2O)C(CC=O)CC(C)C(=O)C=CC(C)=CC1COC1OC(C)C(O)C(OC)C1OC (stereo unspecified)	8.84
CC1=CC2OC3C(O)CC(C)(C34CO4)C2(CO)C(O)C1=O (stereo unspecified)	2.83
CCNc1nc(NC(C)(C)C)[nH]c(=O)n1	5.25
CNC(=O)CSP(=S)(OC)OC	4.63
COc1cc(Cc2cnc(N)nc2N)cc(OC)c1OC	3.15
CNC(=O)Oc1cccc2c1OC(C)(C)C2	7.48
CNC(=O)Oc1cc(C)c(SC)c(C)c1	9.95
COc1cc2c(c3oc(=O)c4c(c13)CCC4=O)C1C=COC1O2 (stereo unspecified)	7.15
CN1C2CCC1C(C(=O)O)C(OC(=O)c1ccccc1)C2 (stereo unspecified)	4.08
Cc1nc(N(C)C)nc(OC(=O)N(C)C)c1C	7.79
CNC(C)C(=O)c1ccccc1 (stereo unspecified)	2.26

Further lines, results first:

LC retention time [min]	SMILES
4.8	c1ccc2[nH]c(-c3cscn3)nc2c1
3.59	Cc1cc(C)nc(NS(=O)(=O)c2ccc(N)cc2)n1
10.3	CCCCOC(=O)c1ccc(O)cc1
2.7	CCn1cc(C(=O)O)c(=O)c2cnc(N3CCNCC3)nc21
2.96	O=C1OCCN1N=Cc1ccc([N+](=O)[O-])o1
12.8	Cc1ccc(C)c(OCCCC(C)(C)C(=O)O)c1
9.99	CC12CCC3c4ccc(O)cc4CCC3C1CCC2=O (stereo unspecified)
10.6	CCCCC(=O)N(Cc1ccc(-c2ccccc2-c2nn[nH]n2)cc1)C(C(=O)O)C(C)C (stereo unspecified)
2.09	Nc1ccc(S(=O)(=O)Nc2ncccn2)cc1
8.97	CCCOC(=O)c1ccc(O)cc1
7.1	CCn1cc(C(=O)O)c(=O)c2ccc(C)nc21
3.48	Cc1c(N)c(=O)n(-c2ccccc2)n1C
3.91	Cc1cc(NS(=O)(=O)c2ccc(N)cc2)no1
2.05	CC(=O)Nc1ccc(O)cc1
6.4	O=C(c1ccc(O)cc1O)c1ccc(O)cc1O
8.19	Cc1onc(-c2ccccc2)c1C(=O)NC1C(=O)N2C1SC(C)(C)C2C(=O)O (stereo unspecified)
7.47	CCOC(=O)C(CCc1ccccc1)NC(C)C(=O)N1CCCC1C(=O)O (stereo unspecified)

LC retention time [min]	SMILES
10.6	CC12CCC3c4ccc(OS(=O)(=O)O)cc4CCC3C1CCC2=O (stereo unspecified)
9.5	CC(C(=O)O)c1cccc(C(=O)c2ccccc2)c1 (stereo unspecified)
8.1	NC(=O)N1c2ccccc2C=Cc2ccccc21
6.4	COc1cc(O)c(C(=O)c2ccccc2)cc1S(=O)(=O)O
7.08	CC1(C)SC2C(NC(=O)Cc3ccccc3)C(=O)N2C1C(=O)O (stereo unspecified)
3.44	Cc1cc2c(s1)Nc1ccccc1N=C2N1CCN(C)CC1
7.54	CCOC(=O)c1ccc(O)cc1
3.19	Cc1nnc(N=S(=O)(O)c2ccc(N)cc2)s1
7.55	COc1ccc2nc(S(=O)Cc3ncc(C)c(OC)c3C)[nH]c2c1 (stereo unspecified)
4.8	O=C(O)c1ccccc1O
11.8	CC(C)Cc1ccc(C(C)C(=O)O)cc1 (stereo unspecified)
9.74	COc1ccc2cc(C(C)C(=O)O)ccc2c1 (stereo unspecified)
5.92	CC(=O)O[Si](CCCC(O)COC(=O)c1ccc(O)cc1)(OC(C)=O)c1ccccc1 (stereo unspecified)
10.3	CCC(=C(CC)c1ccc(O)cc1)c1ccc(O)cc1
11.1	COc1ccc(C(=O)c2ccccc2)c(O)c1
10.3	CCCCC1=NC2(CCCC2)C(=O)N1Cc1ccc(-c2ccccc2-c2nn[nH]n2)cc1
